Each structure is given as a SMILES string.

The target of one test is T1, FGFR1 kinase (Homo sapiens, UniProt P11362). Nature of the test: cell-free Caliper mobility shift kinase assay, […] inhibition at […]; also lowers p-FGFR1 in cells. The format is biochemical.
T1 sequence (P11362 22-822): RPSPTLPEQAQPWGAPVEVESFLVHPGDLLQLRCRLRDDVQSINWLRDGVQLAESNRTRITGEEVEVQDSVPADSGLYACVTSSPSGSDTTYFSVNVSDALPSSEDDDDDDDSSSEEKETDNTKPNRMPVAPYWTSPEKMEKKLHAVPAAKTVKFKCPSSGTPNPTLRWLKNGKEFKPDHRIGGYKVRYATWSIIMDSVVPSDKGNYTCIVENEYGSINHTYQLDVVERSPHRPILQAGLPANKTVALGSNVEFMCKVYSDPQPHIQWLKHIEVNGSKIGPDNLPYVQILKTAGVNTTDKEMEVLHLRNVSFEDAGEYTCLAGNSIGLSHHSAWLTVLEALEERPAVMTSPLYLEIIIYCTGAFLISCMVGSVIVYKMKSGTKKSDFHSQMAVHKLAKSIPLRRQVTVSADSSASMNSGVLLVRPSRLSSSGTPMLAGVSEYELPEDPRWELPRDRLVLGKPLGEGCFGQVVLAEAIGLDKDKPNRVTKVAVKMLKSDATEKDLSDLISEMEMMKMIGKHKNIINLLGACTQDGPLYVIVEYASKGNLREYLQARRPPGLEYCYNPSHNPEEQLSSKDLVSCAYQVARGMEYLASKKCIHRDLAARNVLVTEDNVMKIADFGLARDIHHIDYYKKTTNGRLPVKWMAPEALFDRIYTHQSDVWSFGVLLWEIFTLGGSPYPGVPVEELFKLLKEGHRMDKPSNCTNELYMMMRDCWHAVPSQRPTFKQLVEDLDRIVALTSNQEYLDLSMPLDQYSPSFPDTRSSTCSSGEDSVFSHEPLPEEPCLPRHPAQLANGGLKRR
Consider `COc1cccc(/C=C2\COC/C(=C\c3ccc(O)c(O)c3)C2=O)c1OC` [Y14, (3E,5E)-3-(3,4-dihydroxybenzylidene)-5-(2,3-dimethoxybenzylidene)dihydro-2H-pyran-4(3H)-one], for which the inhibition (usually the drop in the measured response relative to a control, in per cent) at 20 µM is 92%.

In the next test the target is T1, FGFR1 kinase. Nature of the test: cell-free Caliper mobility shift kinase assay, inhibition at […]. The format is biochemical.
For the molecule `O=C1/C(=C/c2ccc(O)c(O)c2)COC/C1=C\c1ccc(O)c(O)c1` [Af23], the inhibition at 20 µM is 92.8%. Same read-out and setting: in the case of `COc1cc(/C=C2\COC/C(=C\c3ccc(O)c(O)c3)C2=O)ccc1O` [Y2, (3E,5E)-3-(3,4-dihydroxybenzylidene)-5-(4-hydroxy-3-methoxybenzylidene)dihydro-2H-pyran-4(3H)-one] it was 55.7%; in that of `O=C1/C(=C/c2ccc(O)cc2)COC/C1=C\c1ccc(O)c(O)c1` [Y5, (3E,5E)-3-(3,4-dihydroxybenzylidene)-5-(4-hydroxybenzylidene)dihydro-2H-pyran-4(3H)-one], 78.5%.

Consider `O=C1/C(=C/c2cccc(O)c2)COC/C1=C\c1ccc(O)c(O)c1` [Y7, (3E,5E)-3-(3,4-dihydroxybenzylidene)-5-(3-hydroxybenzylidene)dihydro-2H-pyran-4(3H)-one], for which the inhibition at 20 µM stood at 73.7%. For `COc1ccc(/C=C2\COC/C(=C\c3ccc(O)c(O)c3)C2=O)cc1O` [Y9, (3E,5E)-3-(3,4-dihydroxybenzylidene)-5-(3-hydroxy-4-methoxybenzylidene)dihydro-2H-pyran-4(3H)-one], the inhibition at 20 µM worked out at 53.5%. On to `COc1ccccc1/C=C1\COC/C(=C\c2ccc(O)c(O)c2)C1=O` [Y11, (3E,5E)-3-(3,4-dihydroxybenzylidene)-5-(2-methoxybenzylidene)dihydro-2H-pyran-4(3H)-one], for which the inhibition at 20 µM turned out to be 54.2%.

`O=C1/C(=C/c2ccc(N3CCOCC3)cc2)COC/C1=C\c1ccc(O)c(O)c1` [Y13, (3E,5E)-3-(3,4-dihydroxybenzylidene)-5-(4-morpholinobenzylidene)dihydro-2H-pyran-4(3H)-one]: the inhibition at 20 µM is 71.4%. Still for that read-out and setting: in the case of `COc1ccc(OC)c(/C=C2\COC/C(=C\c3ccc(O)c(O)c3)C2=O)c1` [Y15, (3E,5E)-3-(3,4-dihydroxybenzylidene)-5-(2,5-dimethoxybenzylidene)dihydro-2H-pyran-4(3H)-one] it was 67.6%.

(Values after article PMC7517944, “Design and Synthesis of Novel Nordihydroguaiaretic Acid (NDGA) Analogues as Potential FGFR1 Kinase Inhibitors With Anti-Gastric Activity and Chemosensitizing Effect” (Frontiers in Pharmacology, 2020).)
